Experimental data: patent US12319640B2, “Cyclic diones as herbicidal compounds” (SYNGENTA CROP PROTECTION AG, priority 2019, dated 2025)

Assays:
Assay in all cases: Glasshouse herbicide test, pre- and post-emergence
Type in all cases: in vivo
[1] = system: Echinochloa crus-galli (ECHCG); conditions: 250 g/h, evaluated after 13 days, five-point scale; for percentage damage caused to the plant, ECHCG POST: post-emergence; for percentage damage caused to the plant, ECHCG PRE: pre-emergence
Procedure: (§1) Seeds of a variety of test species are sown in standard soil in pots (Lolium perenne (LOLPE), Setaria faberi (SETFA), Alopecurus myosuroides (ALOMY), Echinochloa crus-galli (ECHCG), Avena fatua (AVEFA)). After cultivation for one day (pre-emergence) or after 8 days cultivation (post-emergence) under controlled conditions in a glasshouse (at 24/16° C., day/night; 14 hours light; 65% humidity), the plants are sprayed with an aqueous spray solution derived from the formulation of the technical active ingredient in acetone/water (50:50) solution containing 0.5% Tween 20 (polyoxyethelyene sorbitan monolaurate, CAS RN 9005-64-5). Compounds are applied at 250 g/h. The test plants are then grown in a glasshouse under controlled conditions in a glasshouse (at 24/16° C., day/night; 14 hours light; 65% humidity) and watered twice daily. After 13 days for pre and post-emergence, the test is evaluated for the percentage damage caused to the plant. The biological activities are shown in the following table on a five-point scale (5=80-100%; 4=60-79%; 3=40-59%; 2=20-39%; 1=0-19%).

[2] = system: Setaria faberi (SETFA); conditions: 250 g/h, evaluated after 13 days, five-point scale; for percentage damage caused to the plant, SETFA POST: post-emergence; for percentage damage caused to the plant, SETFA PRE: pre-emergence
Procedure: as §1

[3] = system: Lolium perenne (LOLPE); conditions: 250 g/h, evaluated after 13 days, five-point scale; for percentage damage caused to the plant, LOLPE POST: post-emergence; for percentage damage caused to the plant, LOLPE PRE: pre-emergence
Procedure: as §1

[4] = system: Avena fatua (AVEFA); conditions: 250 g/h, evaluated after 13 days, five-point scale; for percentage damage caused to the plant, AVEFA POST: post-emergence; for percentage damage caused to the plant, AVEFA PRE: pre-emergence
Procedure: as §1

[5] = system: Alopecurus myosuroides (ALOMY); conditions: 250 g/h, evaluated after 13 days, five-point scale; for percentage damage caused to the plant, ALOMY POST: post-emergence; for percentage damage caused to the plant, ALOMY PRE: pre-emergence
Procedure: as §1

SMILES: CC#Cc1cc(C)c(C2C(=O)CC3(CCC(C(=O)N(C)CCO)CC3)CC2=O)c(C)c1 (stereo not shown) [Compound 1.009]
- percentage damage caused to the plant, ECHCG POST [1]: 5 (5=80-100%)
- percentage damage caused to the plant, ECHCG PRE [1]: 4 (4=60-79%)
- percentage damage caused to the plant, SETFA POST [2]: 5 (5=80-100%)
- percentage damage caused to the plant, SETFA PRE [2]: 3 (3=40-59%)
- percentage damage caused to the plant, LOLPE POST [3]: 5 (5=80-100%)
- percentage damage caused to the plant, LOLPE PRE [3]: 5 (5=80-100%)
- percentage damage caused to the plant, AVEFA POST [4]: 5 (5=80-100%)
- percentage damage caused to the plant, AVEFA PRE [4]: 3 (3=40-59%)
- percentage damage caused to the plant, ALOMY POST [5]: 5 (5=80-100%)
- percentage damage caused to the plant, ALOMY PRE [5]: 4 (4=60-79%)

SMILES: CC#Cc1cc(C)c(C2C(=O)CC3(CCC(C(=O)NOC)CC3)CC2=O)c(C)c1 (stereo not shown) [Compound 1.010]
- percentage damage caused to the plant, ECHCG POST [1]: 5 (5=80-100%)
- percentage damage caused to the plant, ECHCG PRE [1]: 5 (5=80-100%)
- percentage damage caused to the plant, SETFA POST [2]: 5 (5=80-100%)
- percentage damage caused to the plant, SETFA PRE [2]: 5 (5=80-100%)
- percentage damage caused to the plant, LOLPE POST [3]: 5 (5=80-100%)
- percentage damage caused to the plant, LOLPE PRE [3]: 5 (5=80-100%)
- percentage damage caused to the plant, AVEFA POST [4]: 5 (5=80-100%)
- percentage damage caused to the plant, AVEFA PRE [4]: 3 (3=40-59%)
- percentage damage caused to the plant, ALOMY POST [5]: 4 (4=60-79%)
- percentage damage caused to the plant, ALOMY PRE [5]: 3 (3=40-59%)

SMILES: CC#Cc1cc(C)c(C2C(=O)CC3(CCC(C(=O)NCCOC)CC3)CC2=O)c(C)c1 (stereo not shown) [Compound 1.011]
- percentage damage caused to the plant, ECHCG POST [1]: 5 (5=80-100%)
- percentage damage caused to the plant, ECHCG PRE [1]: 5 (5=80-100%)
- percentage damage caused to the plant, SETFA POST [2]: 5 (5=80-100%)
- percentage damage caused to the plant, SETFA PRE [2]: 5 (5=80-100%)
- percentage damage caused to the plant, LOLPE POST [3]: 5 (5=80-100%)
- percentage damage caused to the plant, LOLPE PRE [3]: 5 (5=80-100%)
- percentage damage caused to the plant, AVEFA POST [4]: 5 (5=80-100%)
- percentage damage caused to the plant, AVEFA PRE [4]: 5 (5=80-100%)
- percentage damage caused to the plant, ALOMY POST [5]: 5 (5=80-100%)
- percentage damage caused to the plant, ALOMY PRE [5]: 5 (5=80-100%)

SMILES: CC#Cc1cc(C)c(C2C(=O)CC3(CCC(C(=O)NCCO)CC3)CC2=O)c(C)c1 (stereo not shown) [Compound 1.012]
- percentage damage caused to the plant, ECHCG POST [1]: 5 (5=80-100%)
- percentage damage caused to the plant, ECHCG PRE [1]: 4 (4=60-79%)
- percentage damage caused to the plant, SETFA POST [2]: 5 (5=80-100%)
- percentage damage caused to the plant, SETFA PRE [2]: 4 (4=60-79%)
- percentage damage caused to the plant, LOLPE POST [3]: 4 (4=60-79%)
- percentage damage caused to the plant, LOLPE PRE [3]: 4 (4=60-79%)
- percentage damage caused to the plant, AVEFA POST [4]: 4 (4=60-79%)
- percentage damage caused to the plant, AVEFA PRE [4]: 4 (4=60-79%)
- percentage damage caused to the plant, ALOMY POST [5]: 4 (4=60-79%)
- percentage damage caused to the plant, ALOMY PRE [5]: 4 (4=60-79%)

SMILES: CC#Cc1cc(C)c(C2C(=O)CC3(CCC(C(=O)NC(C)(C)C)CC3)CC2=O)c(C)c1 (stereo not shown) [Compound 1.013]
- percentage damage caused to the plant, ECHCG POST [1]: 5 (5=80-100%)
- percentage damage caused to the plant, ECHCG PRE [1]: 5 (5=80-100%)
- percentage damage caused to the plant, SETFA POST [2]: 5 (5=80-100%)
- percentage damage caused to the plant, SETFA PRE [2]: 5 (5=80-100%)
- percentage damage caused to the plant, LOLPE POST [3]: 5 (5=80-100%)
- percentage damage caused to the plant, LOLPE PRE [3]: 5 (5=80-100%)
- percentage damage caused to the plant, AVEFA POST [4]: 4 (4=60-79%)
- percentage damage caused to the plant, AVEFA PRE [4]: 1 (1=0-19%)
- percentage damage caused to the plant, ALOMY POST [5]: 5 (5=80-100%)
- percentage damage caused to the plant, ALOMY PRE [5]: 3 (3=40-59%)

SMILES: CC#Cc1cc(C)c(C2C(=O)CC3(CCC(C(=O)NC(C)(C#N)CC)CC3)CC2=O)c(C)c1 (stereo not shown) [Compound 1.014]
- percentage damage caused to the plant, ECHCG POST [1]: 5 (5=80-100%)
- percentage damage caused to the plant, ECHCG PRE [1]: 5 (5=80-100%)
- percentage damage caused to the plant, SETFA POST [2]: 5 (5=80-100%)
- percentage damage caused to the plant, SETFA PRE [2]: 5 (5=80-100%)
- percentage damage caused to the plant, LOLPE POST [3]: 5 (5=80-100%)
- percentage damage caused to the plant, LOLPE PRE [3]: 5 (5=80-100%)
- percentage damage caused to the plant, AVEFA POST [4]: 5 (5=80-100%)
- percentage damage caused to the plant, AVEFA PRE [4]: 2 (2=20-39%)
- percentage damage caused to the plant, ALOMY POST [5]: 5 (5=80-100%)
- percentage damage caused to the plant, ALOMY PRE [5]: 3 (3=40-59%)

SMILES: CC#Cc1cc(C)c(C2C(=O)CC3(CCC(C(=O)NC)CC3)CC2=O)c(OC)c1 (stereo not shown) [Compound 1.016]
- percentage damage caused to the plant, ECHCG POST [1]: 5 (5=80-100%)
- percentage damage caused to the plant, ECHCG PRE [1]: 5 (5=80-100%)
- percentage damage caused to the plant, SETFA POST [2]: 5 (5=80-100%)
- percentage damage caused to the plant, SETFA PRE [2]: 5 (5=80-100%)
- percentage damage caused to the plant, LOLPE POST [3]: 5 (5=80-100%)
- percentage damage caused to the plant, LOLPE PRE [3]: 5 (5=80-100%)
- percentage damage caused to the plant, AVEFA POST [4]: 5 (5=80-100%)
- percentage damage caused to the plant, AVEFA PRE [4]: 5 (5=80-100%)
- percentage damage caused to the plant, ALOMY POST [5]: 5 (5=80-100%)
- percentage damage caused to the plant, ALOMY PRE [5]: 5 (5=80-100%)
